This passage reports IC50 results from ChEMBL document CHEMBL1138072, “Critical modifications of the ISO-1 scaffold improve its potent inhibition of macrophage migration inhibitory factor (MIF) tautomerase activity” (Bioorg Med Chem Lett, 2006).

In the assay the target is T1, Macrophage migration inhibitory factor (Homo sapiens, UniProt P14174).
T1 sequence (P14174 whole entry): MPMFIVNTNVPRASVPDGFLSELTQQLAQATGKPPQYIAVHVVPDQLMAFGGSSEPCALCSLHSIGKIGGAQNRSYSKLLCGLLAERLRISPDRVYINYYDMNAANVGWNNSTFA
As to the kind of experiment: Inhibition of MIF tautomerase activity.

Some results are limits rather than exact numbers.

One may read the IC50 as the point on the concentration scale where inhibition reaches its midpoint. On to `CCCOC(=O)CC1CC(c2ccc(O)cc2)=NO1` (stereo unspecified), for which inhibition was half-maximal at 4 µM (IC50).

In the case of `O=C(CC1CC(c2ccc(O)cc2)=NO1)NC1CCCCC1` (stereo unspecified), the midpoint of inhibition, the IC50, lay at 24 µM.

On to `COC(=O)CC1CC(c2ccc(O)c(F)c2)=NO1` (stereo unspecified), for which it took 6.5 µM to reach half-maximal inhibition (IC50).

Take `CCOC(=O)CC1CC(c2ccc(O)cc2)=NO1` (stereo unspecified): half-maximal inhibition (IC50) was put at 12 µM. This IC50 is about 1.8-fold higher than that of the compound before.

The compound `O=C(CC1CC(c2ccc(O)cc2)=NO1)OC1CCCCC1` (stereo unspecified) showed an IC50 of 2.5 µM.

On to `O=C(CC1CC(c2ccc(O)cc2)=NO1)OCC1CCCCC1` (stereo unspecified), for which 5 µM corresponded to half-maximal inhibition (IC50).

In turn, `Cc1cc(C)c(OC(=O)CC2CC(c3ccc(O)cc3)=NO2)c(C)c1` (stereo unspecified) registered a half-inhibitory concentration (IC50) of 20 µM.

Regarding `CC(C)(C)COC(=O)CC1CC(c2ccc(O)cc2)=NO1` (stereo unspecified), the concentration for half-maximal inhibition (IC50) was 1.5 µM. Against the preceding compound, the IC50 is about 13-fold lower.

As to `COc1ccc(NC(=O)CC2CC(c3ccc(O)cc3)=NO2)cc1` (stereo unspecified), the IC50 turned out to be 26 µM.

`CCCCOC(=O)CC1CC(c2ccc(O)cc2)=NO1` (stereo unspecified) had an IC50 of 3 µM.

`COc1ccc(OC(=O)CC2CC(c3ccc(O)cc3)=NO2)cc1` (stereo unspecified) yielded an IC50 of 8.5 µM.

`NCCCCNC(=O)CC1CC(c2ccc(O)cc2)=NO1` (stereo unspecified) gave an IC50 of more than 100 µM.

`CC(C)(C)OC(=O)NCCCCNC(=O)CC1CC(c2ccc(O)cc2)=NO1` (stereo unspecified) yielded an IC50 of 8.5 µM.

`CC(C)OC(=O)CC1CC(c2ccc(O)cc2)=NO1` (stereo unspecified) displayed an IC50 of 6 µM.

Consider `O=C(CC1CC(c2ccc(O)cc2)=NO1)Oc1ccccc1` (stereo unspecified), for which it took 10 µM to reach half-maximal inhibition (IC50).

The compound `CC(C)(C)c1ccc(OC(=O)CC2CC(c3ccc(O)cc3)=NO2)cc1` (stereo unspecified) registered an IC50 of 10 µM.
